Data on 32 substances can be found in patent publication US8258114B2, “Modulation of glucose-6-phosphatase translocase expression” (Isis Pharmaceuticals, Inc., priority 2004, dated 2012).

Oligonucleotides are written 5' to 3', each unit as a sugar letter and its base; * is a phosphorothioate linkage, no mark a phosphodiester; rarer units and linkages stand in square brackets, end groups in braces. Plain capitals give the bases only. e = 2'-O-(2-methoxyethyl) (MOE); [5mC] = 5-methylcytosine; d = 2'-deoxy (DNA)

The test system of this data set is mouse glucose-6-phosphatase translocase mRNA. Kind of data set: Antisense inhibition of mouse glucose-6-phosphatase translocase mRNA in primary mouse hepatocytes, 150 nM, LIPOFECTIN (Table 22). Format: cell-based. The note with it: real-time PCR. As for the experimental part:
Primary mouse hepatocytes were prepared from CD-1 mice purchased from Charles River Labs. Primary mouse hepatocytes were routinely cultured in Hepatocyte Attachment Media supplemented with 10% fetal bovine serum (Invitrogen Life Technologies, Carlsbad, Calif.), 250 nM dexamethasone, and 10 nM bovine insulin (Sigma-Aldrich, St. Louis, Mo.). Cells were seeded into 96-well plates (Falcon-Primaria #353872, BD Biosciences, Bedford, Mass.) at a density of approximately 4,000-6,000 cells/well for use in oligomeric compound transfection experiments.
When cells reached 65-75% confluency, they were treated with oligonucleotide. Oligonucleotide was mixed with LIPOFECTIN™ Invitrogen Life Technologies, Carlsbad, Calif.) in Opti-MEM™-1 reduced serum medium (Invitrogen Life Technologies, Carlsbad, Calif.) to achieve the desired concentration of oligonucleotide and a LIPOFECTIN™ concentration of 2.5 or 3 μg/mL per 100 nM oligonucleotide. This transfection mixture was incubated at room temperature for approximately 0.5 hours. For cells grown in 96-well plates, wells were washed once with 100 μL OPTI-MEM™-1 and then treated with 130 μL of the transfection mixture. Cells grown in 24-well plates or other standard tissue culture plates are treated similarly, using appropriate volumes of medium and oligonucleotide. Cells are treated and data are obtained in duplicate or triplicate. After approximately 4-7 hours of treatment at 37° C., the medium containing the transfection mixture was replaced with fresh culture medium. Cells were harvested 16-24 hours after oligonucleotide treatment.
Quantitation of glucose 6-phosphatase translocase mRNA levels was accomplished by real-time quantitative PCR using the ABI PRISM™ 7600, 7700, or 7900 Sequence Detection System (PE-Applied Biosystems, Foster City, Calif.) according to manufacturer's instructions.
Prior to quantitative PCR analysis, primer-probe sets specific to the target gene being measured were evaluated for their ability to be “multiplexed” with a GAPDH amplification reaction. After isolation the RNA is subjected to sequential reverse transcriptase (RT) reaction and real-time PCR, both of which are performed in the same well. RT and PCR reagents were obtained from Invitrogen Life Technologies (Carlsbad, Calif.). […] The RT reaction was carried out by incubation for 30 minutes at 48° C. Following a 10 minute incubation at 95° C. to activate the PLATINUM® Taq, 40 cycles of a two-step PCR protocol were carried out: 95° C. for 15 seconds (denaturation) followed by 60° C. for 1.5 minutes (annealing/extension).
Gene target quantities obtained by RT, real-time PCR were normalized using either the expression level of GAPDH, a gene whose expression is constant, or by quantifying total RNA using RiboGreen™ (Molecular Probes, Inc. Eugene, Oreg.). GAPDH expression was quantified by RT, real-time PCR, by being run simultaneously with the target, multiplexing, or separately. Total RNA was quantified using RiboGreen™ RNA quantification reagent (Molecular Probes, Inc. Eugene, Oreg.).
A series of oligomeric compounds was designed to target different regions of mouse glucose-6-phosphatase translocase, using published sequences cited in Table 1. All compounds in Table 22 are chimeric oligonucleotides (“gapmers”) 20 nucleotides in length, composed of a central “gap” region consisting of 10 2′-deoxynucleotides, which is flanked on both sides (5′ and 3′) by five-nucleotide “wings”. The wings are composed of 2′-O-(2-methoxyethyl) nucleotides, also known as 2′-MOE nucleotides. The internucleoside (backbone) linkages are phosphorothioate throughout the oligonucleotide. All cytidine residues are 5-methylcytidines. The compounds were analyzed for their effect on gene target mRNA levels by quantitative real-time PCR as described in other examples herein, using the following primer-probe set designed to hybridize to mouse glucose-6-phosphatase translocase: • forward primer: […]
(In qPCR the cycle at which signal appears reflects the starting amount.)
Take “145699 (eT*e[5mC]*e[5mC]*eA*e[5mC]*d[5mC]*d[5mC]*dA*d[5mC]*dA*dT*dT*dG*dG*d[5mC]*e[5mC]*eA*eT*eA*eA; antisense) [compound 145699]”: the “% Inhib of mouse glucose-6-phosphatase translocase mRNA levels” value (“% Inhib” for short) worked out at 41%. “145692 (antisense eG*e[5mC]*eT*eG*e[5mC]*d[5mC]*dA*dT*d[5mC]*d[5mC]*d[5mC]*dA*dG*d[5mC]*d[5mC]*eA*eT*e[5mC]*eA*eT) [compound 145692]”: the “% Inhib” value amounted to 65%.

As to “145709 (eG*eG*eG*eA*eT*dG*d[5mC]*dT*d[5mC]*d[5mC]*dA*dT*dA*dG*d[5mC]*eG*eA*eG*eG*eA; antisense) [compound 145709]”, the “% Inhib” value is 14%. For “145666 (antisense eA*eA*eG*eA*eT*dA*dG*dG*dT*d[5mC]*d[5mC]*d[5mC]*dA*dA*dA*e[5mC]*eT*eT*e[5mC]*e[5mC]) [compound 145666]”, the “% Inhib” value is given as 28%.

With “145684 (antisense eT*e[5mC]*eT*eT*eT*dA*d[5mC]*dT*d[5mC]*d[5mC]*dG*dA*dA*dG*dA*e[5mC]*e[5mC]*eA*e[5mC]*eA) [compound 145684]”, the “% Inhib” value came out at 43%. The value for “145660 (antisense eT*eG*eT*eG*eG*dA*dG*d[5mC]*dT*d[5mC]*d[5mC]*dA*dT*dG*dA*eG*eA*eA*eG*eA) [compound 145660]” was 40%. Regarding “145717 (eT*eA*e[5mC]*eT*e[5mC]*dA*d[5mC]*dT*dA*dG*dG*dA*dG*dA*dT*e[5mC]*eA*eG*eG*eA; antisense) [compound 145717]”, the “% Inhib” value was 52%.

Consider “145693 (eG*eG*eA*eA*eG*dA*dG*dA*dT*dA*d[5mC]*dG*dT*dG*dG*eA*eT*eG*e[5mC]*eT; antisense) [compound 145693]”, for which the “% Inhib” value worked out at 0%. “145695 (e[5mC]*eA*eA*eT*eG*dG*dG*dA*d[5mC]*d[5mC]*dA*dT*dA*dA*dG*eA*eA*eG*eA*eG; antisense) [compound 145695]”: the “% Inhib” value worked out at 24%. As to “145724 (eG*eG*e[5mC]*eT*e[5mC]*dT*dT*dT*dA*dT*dA*dG*d[5mC]*d[5mC]*dG*e[5mC]*e[5mC]*eT*eT*e[5mC]; antisense) [compound 145724]”, the “% Inhib” value came out at 0%.

In the case of “145648 (antisense e[5mC]*eT*eT*e[5mC]*eT*dG*dA*d[5mC]*d[5mC]*dA*d[5mC]*dA*dG*dA*d[5mC]*eT*e[5mC]*eT*eT*eG) [compound 145648]”, the “% Inhib” value was determined as 26%. Regarding “145682 (antisense eG*eG*eG*eT*eG*d[5mC]*dT*d[5mC]*dT*d[5mC]*d[5mC]*dT*d[5mC]*d[5mC]*dT*eT*e[5mC]*eA*eA*eG) [compound 145682]”, the “% Inhib” value amounted to 31%. The value for “145705 (e[5mC]*eT*eT*eG*eG*dT*dG*d[5mC]*dG*dG*dA*dT*dA*dT*dT*eT*e[5mC]*eG*eA*eA; antisense) [compound 145705]” was 49%.

Take “145713 (eG*eT*eA*eA*e[5mC]*dT*dT*dG*d[5mC]*dA*dG*d[5mC]*dA*d[5mC]*d[5mC]*eA*eT*eG*eG*eA; antisense) [compound 145713]”: the “% Inhib” value amounted to 63%.

With “145722 (e[5mC]*eA*eG*eT*eG*dT*d[5mC]*d[5mC]*d[5mC]*dT*dG*d[5mC]*dG*dA*d[5mC]*eA*eT*e[5mC]*eA*eG; antisense) [compound 145722]”, the “% Inhib” value turned out to be 8%. On to “145698 (e[5mC]*e[5mC]*eA*e[5mC]*eA*dA*dT*dA*dG*d[5mC]*dA*dT*dG*dA*dG*eA*eG*eG*eT*eT; antisense) [compound 145698]”, for which the “% Inhib” value worked out at 33%.

On to “145655 (antisense eA*eA*e[5mC]*eA*eT*dG*dG*d[5mC]*d[5mC]*dG*d[5mC]*dA*dA*dA*dT*eA*eT*eG*eA*e[5mC]) [compound 145655]”, for which the “% Inhib” value was 29%. The value for “145647 (antisense e[5mC]*eT*e[5mC]*eT*eT*dG*dA*d[5mC]*dT*dG*d[5mC]*dT*d[5mC]*d[5mC]*dT*eG*e[5mC]*eT*eT*eG) [compound 145647]” was 52%; that for “145708 (eG*eG*eA*e[5mC]*eT*d[5mC]*dG*dA*dT*dT*d[5mC]*dA*d[5mC]*dT*d[5mC]*eT*e[5mC]*e[5mC]*e[5mC]*eT; antisense) [compound 145708]” was 48%; that for “145720 (TCAAATCTAGCTTTATTCGA; 2'-MOE wings and deoxy gap, wing lengths and linkages not given here) [compound 145720]” was 11%.

For “145719 (eG*eA*eG*eT*eG*dG*dT*dG*dG*dA*d[5mC]*dT*d[5mC]*d[5mC]*dT*e[5mC]*eT*e[5mC]*e[5mC]*eT; antisense) [compound 145719]”, the “% Inhib” value is 47%. The value for “145711 (eG*eA*eG*eA*eG*dA*d[5mC]*dA*dG*dT*dG*dG*dA*dG*dA*e[5mC]*eA*e[5mC]*eA*eG; antisense) [compound 145711]” was 33%; that for “145659 (antisense e[5mC]*eG*e[5mC]*eT*e[5mC]*dA*dT*d[5mC]*dT*dG*dG*dT*d[5mC]*dT*dG*eA*e[5mC]*eA*eG*eA) [compound 145659]” was 15%. “145683 (antisense e[5mC]*eA*eG*e[5mC]*eT*d[5mC]*d[5mC]*dT*dG*dT*dA*dG*dG*dG*dT*eG*e[5mC]*eT*e[5mC]*eT) [compound 145683]”: the “% Inhib” value is given as 0%. As for “145689 (antisense e[5mC]*eA*eA*eG*eG*dG*d[5mC]*dG*dG*dA*d[5mC]*dT*dG*d[5mC]*d[5mC]*e[5mC]*eT*e[5mC]*eT*e[5mC]) [compound 145689]”, the “% Inhib” value was determined as 34%. For the substance “145656 (antisense eT*eA*e[5mC]*eA*eG*dG*d[5mC]*dT*dG*dT*dA*dG*d[5mC]*d[5mC]*dT*e[5mC]*e[5mC]*eA*eA*eA) [compound 145656]”, the “% Inhib” value is reported as 47%. For “145694 (eA*eG*eT*e[5mC]*eA*d[5mC]*dT*dG*dG*dT*d[5mC]*dA*d[5mC]*d[5mC]*dG*eT*eT*eA*e[5mC]*eT; antisense) [compound 145694]”, the “% Inhib” value was determined as 23%. For “145710 (e[5mC]*e[5mC]*eT*eG*e[5mC]*d[5mC]*dA*dG*dT*dA*dA*dG*dG*d[5mC]*dT*eG*e[5mC]*eA*eG*eT; antisense) [compound 145710]”, the “% Inhib” value came to 13%.

In the case of “145678 (antisense eG*eA*eG*e[5mC]*e[5mC]*d[5mC]*dT*dT*d[5mC]*dT*dT*dG*d[5mC]*d[5mC]*d[5mC]*eT*e[5mC]*eA*eG*eA) [compound 145678]”, the “% Inhib” value came out at 60%. The value for “145721 (eG*eG*e[5mC]*eT*eG*dT*dG*dG*dG*dT*d[5mC]*d[5mC]*d[5mC]*d[5mC]*dG*eA*eA*e[5mC]*eG*eA; antisense) [compound 145721]” was 0%; that for “145712 (eT*eG*eG*eA*eG*dG*dT*dT*d[5mC]*dA*dG*dA*dG*dA*dG*eA*e[5mC]*eA*eG*eT; antisense) [compound 145712]” was 42%; that for “145674 (antisense e[5mC]*eA*eG*e[5mC]*eA*dG*dG*dT*dT*d[5mC]*dA*dT*dT*dG*dT*eG*eG*eA*eT*eG) [compound 145674]” was 43%.
